Converted amounts (≈) assume the structure as drawn. Where two headings read alike, the source gives them in different places.
Columns and labels:
[1] = Microsomal metabolic stability; format: in vitro ADME; conditions: for microsomal CLint at 0.4 μg/ml / half-life at 0.4 μg/ml: liver microsomes, pH 7.4; for microsomal CLint at 0.4 μg/ml: read-out: CLINT; for Predicted EH: hepatic extraction ratio; for Predicted CLblood: microsome-predicted; for half-life at 0.4 μg/ml: 0.4 μg/ml compound, 0.4 mg/ml protein, NADPH
Experimental: The metabolic stability assay was performed by incubating 0.4 μg/ml of each test compound with human and mouse liver microsomes (Xenotech, Lot# 1210057 and 1310211, respectively) suspended in 0.1 M pH 7.4 phosphate buffer at 37°C and 0.4 mg/ml protein concentration. The metabolic reaction was initiated by the addition of an NADPH-regenerating system (i.e. NADPH is the cofactor required for CYP450-mediated metabolism) and quenched at various time points over a 60 min incubation period by the addition of acetonitrile containing diazepam as internal standard. Control samples (containing no NADPH) were included (and quenched at 2, 30 and 60 min) to monitor for potential degradation in the absence of cofactor. Test compound concentration vs time data were fitted to an exponential decay function to determine the first-order rate constant for substrate depletion. This was used to calculate a degradation half-life (T1/2), in vitro intrinsic clearance (CLINT), microsome-predicted blood clearance (CLblood) and a microsome-predicted hepatic extraction ratio (EH) according to the in vitro half-life method of Obach[53].

Hep G2 = assay: In vitro cytotoxicity, WST-1; format: cell-based; conditions: Homo sapiens, HepG2; 24 h exposure; read-out: IC50 values ± SEM
Description: (§1) In order to ensure minimal off target mammalian cell cytotoxicity, we assayed NCL812, NCL195 and NCL219 for in vitro cytotoxicity using a panel of adherent mammalian cell lines: Caco-2 (human colorectal adenocarcinoma cell line), HEL 299 (non-cancerous human lung fibroblast cell line), Hep G2 (human hepatocellular carcinoma cell line), MDBK (normal bovine kidney cell line) and MCF7 (human mammary gland adenocarcinoma cell line). Cell lines were maintained in Dulbecco’s Modified Eagle’s Medium (DMEM; […] After 24 h incubation, media was removed, washed once with medium without antibiotics and fresh medium supplemented with 10% (vol/vol) FBS was added. […] Following exposure for 24 h, WST-1 reagent was added to each well at a final concentration of 10%. […] The IC50 value for each compound against each cell line was determined via non-linear regression (three parameters) using GraphPad Prism v6 software. The robustness of assays was confirmed with selected cell lines (Hep G2 and MDBK) seeded onto a 96–well Microwell Nunclon Delta Surface plate (Thermo Scientific Nunc; Cat No: 136101) at 5 × 10^4 cells per well.

MCF7 = assay: In vitro cytotoxicity, WST-1; format: cell-based; conditions: Homo sapiens, 24 h exposure, read-out: IC50 values ± SEM
Description: as §1

Caco-2 = assay: In vitro cytotoxicity, WST-1; format: cell-based; conditions: Homo sapiens, 24 h exposure, read-out: IC50 values ± SEM
Description: as §1

HEL 299 = assay: In vitro cytotoxicity, WST-1; format: cell-based; conditions: Homo sapiens, 24 h exposure, read-out: IC50 values ± SEM
Description: as §1

MDBK = assay: Real-time cell viability, RealTime-Glo MT; format: cell-based, bovine; conditions: 2 or 8 μg/ml, up to 20 h post-treatment
Description: as §1

human red blood cells = assay: Haemolysis assay; format: cell-based; conditions: 1 h, 37°C; highest concentration used 128 μg/ml
Experimental: This was performed using fresh donor human red blood cells (RBCs), essentially as described previously. Fresh RBCs were washed in PBS three times at 500 × g for 5 min, and then resuspended 1% (w/v) in PBS. […] Thereafter, 198 μL of the 1% RBC solution was added into each well, and the mixture incubated for 1 h at 37°C, with shaking at 100 rpm. Quadruplicate wells containing either 1% Triton X100, or PBS only, served as controls. After incubation, the trays were centrifuged at 1,000 × g for 3 min and 100 μl of supernatant from each well transferred into a new 96-well tray. Absorbance was measured at A450 nm on a Multiskan Ascent 354 Spectrophotometer (Labsystems) and plotted against each dilution. Haemolytic titer was determined as the reciprocal of the dilution at which 50% of erythrocytes were lysed at A450 nm. The experiment was performed twice.

S. pneumoniae = assay: MIC, broth micro-dilution (CLSI); format: cell-based, Streptococcus pneumoniae; conditions: for MIC / MIC50 / MIC90: Streptococcus pneumoniae
S. aureus Xen29 = assay: Minimum bactericidal concentration (MBC); format: cell-based; conditions: Staphylococcus aureus, 99.9% colony count reduction
Experimental: The tray was covered with Breathe-Easy sealing membrane (Z380059, Sigma-Aldrich) and incubated for 16 h overnight at 35°C in an EnSpire Multimode Plate Reader 2300 (PerkinElmer), with data collected every 20 min and 2 sec agitation at 60 rpm between data (A600 nm) acquisitions. The experiment was repeated using the luminescent D39LUX strain on a Cytation 5 Cell Imaging Multi-Mode Reader (BioTek) using IsoplateTM-96 F tray PerkinElmer, 6005020). Kill kinetic assays on S. aureus Xen29 was carried out essentially as described for MIC determination on Cytation 5 Cell Imaging Multi-Mode Reader.
In order to determine the MBC of each compound against S. pneumoniae D39 or S. aureus Xen29, 10 μl aliquots from each duplicate well from the MIC assays (starting from the MIC for each compound) was inoculated onto a HBA plate and incubated at 37°C (+ 5% CO2 for S. pneumoniae D39). Plates were examined at 24 and 48 h and the MBC was recorded as the lowest concentration of each test compound at which a 99.9% colony count reduction was observed on the plate.

In the case of `Cc1ccc(/C=N/Nc2cc(N/N=C/c3ccc(C)cc3)nc(N)n2)cc1` [NCL195, 4,6-bis(2-((E)-4-methylbenzylidene)hydrazinyl)pyrimidin-2-amine], the microsomal CLint at 0.4 μg/ml ([1]; human) is reported as less than 7 µL/min/mg, the “Predicted EH” value ([1]; human) is reported as less than 0.22 and the “Predicted CLblood” value ([1]; human) is reported as less than 5 mL/min/kg. The half-life at 0.4 μg/ml ([1]; human) was greater than 4.12 h, the half-life at 0.4 μg/ml ([1]; mouse) was greater than 4.12 h and the microsomal CLint at 0.4 μg/ml ([1]; mouse) was less than 7 µL/min/mg. For the same compound, the “Predicted EH” value ([1]; mouse) was less than 0.13, the “Predicted CLblood” value ([1]; mouse) was less than 16 mL/min/kg and the IC50 (Hep G2) was 12 ± 0.1 µg/mL (≈ 33.4 µM). The IC50 (MCF7) was 40.1 ± 0.2 µg/mL (≈ 112 µM), the IC50 (Caco-2) was 12.8 ± 0.1 µg/mL (≈ 35.6 µM) and the IC50 (HEL 299) was 10.9 ± 0.2 µg/mL (≈ 30.3 µM). For the same compound, the “Effect on cell viability (real-time)” value (MDBK) was “no measurable effect on cell viability”, the “50% haemolysis titre (HC50)” value (human red blood cells) was greater than 128 µg/mL and the MIC range (S. pneumoniae; 21 isolates) was 2 to 8 µg/mL. The MIC range (S. pneumoniae; S1 Table isolates, 5% FBS + 3% washed RBC) was 2 to 8 µg/mL, the MIC range (S. pneumoniae; S1 Table isolates, 10% FBS + 3% washed RBC) was 2 to 8 µg/mL and the “Change of MIC in the presence of serum” value (S. pneumoniae; S. pneumoniae D39, human, horse or mouse serum) was “remained the same”. It also gave an MIC (S. pneumoniae; A66.1 (serotype 3), 5% FBS) of 8 µg/mL (≈ 22.3 µM), an MIC (S. pneumoniae; A66.1 (serotype 3), 10% FBS) of 8 µg/mL (≈ 22.3 µM) and an MIC (S. pneumoniae; ATCC6303, ATCC 6303 (serotype 3), 5% FBS + 3% washed RBC) of 4 µg/mL. For the same compound, the MIC (S. pneumoniae; ATCC6303, ATCC 6303 (serotype 3), 10% FBS + 3% washed RBC) was 4 µg/mL, the MIC (S. pneumoniae; D39/D39LUX (serotype 2), 5% FBS) was 8 µg/mL (≈ 22.3 µM) and the MIC (S. pneumoniae; D39/D39LUX (serotype 2), 10% FBS) was 8 µg/mL (≈ 22.3 µM). It also gave an MIC (S. pneumoniae; EF3030 (serotype 19F), 5% FBS) of 8 µg/mL (≈ 22.3 µM), an MIC (S. pneumoniae; EF3030 (serotype 19F), 10% FBS) of 8 µg/mL (≈ 22.3 µM) and an MIC (S. pneumoniae; L82016 (serotype 6B), 5% FBS) of 4 µg/mL (≈ 11.1 µM). For the same compound, the MIC (S. pneumoniae; L82016 (serotype 6B), 10% FBS) was 8 µg/mL (≈ 22.3 µM), the MIC (S. pneumoniae; P9 (serotype 6A), 5% FBS) was 8 µg/mL (≈ 22.3 µM) and the MIC (S. pneumoniae; P9 (serotype 6A), 10% FBS) was 8 µg/mL (≈ 22.3 µM). It also gave an MIC (S. pneumoniae; P21 (serotype 3), 5% FBS) of 8 µg/mL (≈ 22.3 µM), an MIC (S. pneumoniae; P21 (serotype 3), 10% FBS) of 8 µg/mL (≈ 22.3 µM) and an MIC50 (S. pneumoniae; S1 Table isolates, 5% FBS) of 4 µg/mL (≈ 11.1 µM). For the same compound, the MIC90 (S. pneumoniae; S1 Table isolates, 5% FBS) was 8 µg/mL (≈ 22.3 µM), the MIC50 (S. pneumoniae; S1 Table isolates, 10% FBS) was 8 µg/mL (≈ 22.3 µM) and the MIC90 (S. pneumoniae; S1 Table isolates, 10% FBS) was 8 µg/mL (≈ 22.3 µM). The MIC (S. pneumoniae; TIGR4 (serotype 4), 5% FBS) was 4 µg/mL (≈ 11.1 µM), the MIC (S. pneumoniae; TIGR4 (serotype 4), 10% FBS) was 4 µg/mL (≈ 11.1 µM) and the MIC (S. pneumoniae; WCH16 (serotype 6A), 5% FBS) was 8 µg/mL (≈ 22.3 µM). For the same compound, the MIC (S. pneumoniae; WCH16 (serotype 6A), 10% FBS) was 8 µg/mL (≈ 22.3 µM), the MIC (S. pneumoniae; WCH43 (serotype 4), 5% FBS) was 4 µg/mL (≈ 11.1 µM) and the MIC (S. pneumoniae; WCH43 (serotype 4), 10% FBS) was 4 µg/mL (≈ 11.1 µM). For the same compound, the MIC (S. pneumoniae; WCH46 (serotype 4), 5% FBS) was 4 µg/mL (≈ 11.1 µM), the MIC (S. pneumoniae; WCH46 (serotype 4), 10% FBS) was 4 µg/mL (≈ 11.1 µM) and the MIC (S. pneumoniae; WCH57 (serotype 8), 5% FBS) was 4 µg/mL (≈ 11.1 µM). It also gave an MIC (S. pneumoniae; WCH57 (serotype 8), 10% FBS) of 4 µg/mL (≈ 11.1 µM), an MIC (S. pneumoniae; WCH77 (serotype 5), 5% FBS) of 2 µg/mL (≈ 5.56 µM) and an MIC (S. pneumoniae; WCH77 (serotype 5), 10% FBS) of 2 µg/mL (≈ 5.56 µM). It also gave an MIC (S. pneumoniae; WCH86 (serotype 4), 5% FBS) of 4 µg/mL (≈ 11.1 µM), an MIC (S. pneumoniae; WCH86 (serotype 4), 10% FBS) of 4 µg/mL (≈ 11.1 µM) and an MIC (S. pneumoniae; WCH89 (serotype 7), 5% FBS) of 8 µg/mL (≈ 22.3 µM). It also gave an MIC (S. pneumoniae; WCH89 (serotype 7), 10% FBS) of 8 µg/mL (≈ 22.3 µM), an MIC (S. pneumoniae; WCH92 (serotype 4), 5% FBS) of 4 µg/mL (≈ 11.1 µM) and an MIC (S. pneumoniae; WCH92 (serotype 4), 10% FBS) of 4 µg/mL (≈ 11.1 µM). It also gave an MIC (S. pneumoniae; WCH137 (serotype 6A), 5% FBS) of 8 µg/mL (≈ 22.3 µM), an MIC (S. pneumoniae; WCH137 (serotype 6A), 10% FBS) of 8 µg/mL (≈ 22.3 µM) and an MIC (S. pneumoniae; WCH158 (serotype 19F), 5% FBS) of 4 µg/mL (≈ 11.1 µM). For the same compound, the MIC (S. pneumoniae; WCH158 (serotype 19F), 10% FBS) was 4 µg/mL (≈ 11.1 µM), the MIC (S. pneumoniae; WCH184 (serotype 19F), 5% FBS) was 8 µg/mL (≈ 22.3 µM) and the MIC (S. pneumoniae; WCH184 (serotype 19F), 10% FBS) was 8 µg/mL (≈ 22.3 µM). It also gave an MIC (S. pneumoniae; WCH211 (serotype 11), 5% FBS) of 4 µg/mL (≈ 11.1 µM), an MIC (S. pneumoniae; WCH211 (serotype 11), 10% FBS) of 4 µg/mL (≈ 11.1 µM) and an MIC (S. pneumoniae; WU2 (serotype 3), 5% FBS) of 8 µg/mL (≈ 22.3 µM). For the same compound, the MIC (S. pneumoniae; WU2 (serotype 3), 10% FBS) was 8 µg/mL (≈ 22.3 µM) and the MBC (S. aureus Xen29) was 2 µg/mL (≈ 5.56 µM).

Reference: publication PMC5584945, “Evaluation of robenidine analog NCL195 as a novel broad-spectrum antibacterial agent” (PLoS ONE, 2017)
